Data: ChEMBL document CHEMBL5620346, “Current scenario of pyrazole hybrids with in vivo therapeutic potential against cancers” (Eur J Med Chem, 2023)

Key:
[1] = AUC (0 to infinity) in CD-1 mouse at 3 mg/kg, ip measured after 24 hrs by LC-MS/MS analysis; assay type: ADME, organism-based; conditions: in vivo
[2] = molecular target: Vascular endothelial growth factor receptor 1 (Homo sapiens, UniProt P17948); assay: Inhibition of VEGFR1 (unknown origin)
NCI-H1581 [3] = assay: Antiproliferative activity against human NCI-H1581 cells assessed as reduction in cell viability by SRB assay; assay type: functional, cell-based
NCI-H1581 [4] = assay: Antitumor activity against human NCI-H1581 cells xenografted in BALB/c nude mouse assessed as tumor growth inhibition once daily at 50 mg/kg, ip for 24 days relative to control; conditions: NCI-H1581, 576 h, read-out: TGI
SNU-16 = assay: Antiproliferative activity against human SNU-16 cells assessed as reduction in cell viability by SRB assay; assay type: functional, cell-based
NCI-H1581 [5] = assay: Antitumor activity against human NCI-H1581 cells xenografted in BALB/c nude mouse assessed as tumor growth inhibition once daily at 10 mg/kg, ip for 24 days relative to control; conditions: NCI-H1581, 576 h, read-out: TGI
[6] = Half life in CD-1 mouse at 3 mg/kg, ip measured after 24 hrs by LC-MS/MS analysis; assay type: ADME, organism-based; conditions: in vivo
[7] = molecular target: Vascular endothelial growth factor receptor 2 (Homo sapiens, UniProt P35968); assay: Inhibition of VEGFR2 (unknown origin)
Vascular endothelial growth factor receptor 2, sequence (P35968 whole entry): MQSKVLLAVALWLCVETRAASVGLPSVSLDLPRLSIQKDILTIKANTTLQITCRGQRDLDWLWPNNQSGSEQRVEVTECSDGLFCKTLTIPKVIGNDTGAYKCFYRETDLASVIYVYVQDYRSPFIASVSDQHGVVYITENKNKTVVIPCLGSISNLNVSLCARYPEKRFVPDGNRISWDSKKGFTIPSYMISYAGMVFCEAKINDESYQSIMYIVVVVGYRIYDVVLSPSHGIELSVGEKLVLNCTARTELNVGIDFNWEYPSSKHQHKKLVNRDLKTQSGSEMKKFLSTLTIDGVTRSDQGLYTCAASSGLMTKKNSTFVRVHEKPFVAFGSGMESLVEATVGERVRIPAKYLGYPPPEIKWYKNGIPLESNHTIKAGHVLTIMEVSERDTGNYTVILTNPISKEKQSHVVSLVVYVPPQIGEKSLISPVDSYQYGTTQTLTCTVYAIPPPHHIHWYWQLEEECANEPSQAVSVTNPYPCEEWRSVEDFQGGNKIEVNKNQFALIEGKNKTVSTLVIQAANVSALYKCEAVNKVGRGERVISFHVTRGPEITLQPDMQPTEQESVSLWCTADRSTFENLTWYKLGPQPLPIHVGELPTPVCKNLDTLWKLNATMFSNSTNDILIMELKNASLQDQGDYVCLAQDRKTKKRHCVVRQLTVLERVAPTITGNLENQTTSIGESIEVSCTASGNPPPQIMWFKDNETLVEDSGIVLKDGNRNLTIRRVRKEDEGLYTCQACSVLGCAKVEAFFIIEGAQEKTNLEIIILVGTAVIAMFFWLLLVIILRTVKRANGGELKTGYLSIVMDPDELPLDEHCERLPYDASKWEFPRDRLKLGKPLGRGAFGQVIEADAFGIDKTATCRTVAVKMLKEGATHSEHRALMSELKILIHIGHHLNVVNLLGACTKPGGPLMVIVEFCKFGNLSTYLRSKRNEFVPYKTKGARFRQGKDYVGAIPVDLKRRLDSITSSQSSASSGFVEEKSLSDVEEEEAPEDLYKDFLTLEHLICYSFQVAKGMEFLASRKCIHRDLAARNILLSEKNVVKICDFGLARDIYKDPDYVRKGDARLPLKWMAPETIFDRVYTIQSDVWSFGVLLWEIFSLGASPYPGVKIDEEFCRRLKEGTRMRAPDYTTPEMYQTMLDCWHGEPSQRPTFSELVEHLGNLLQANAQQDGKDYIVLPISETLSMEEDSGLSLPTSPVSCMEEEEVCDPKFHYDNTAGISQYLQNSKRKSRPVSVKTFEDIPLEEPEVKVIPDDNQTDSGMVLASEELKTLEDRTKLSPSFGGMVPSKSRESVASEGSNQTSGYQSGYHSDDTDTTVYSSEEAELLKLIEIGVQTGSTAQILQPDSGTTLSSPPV

[8] = Antiproliferative activity against human UMUC14 cells assessed as reduction in cell viability by SRB assay; assay type: functional, cell-based
KG-1 = assay: Antiproliferative activity against human KG-1 cells assessed as reduction in cell viability by SRB assay
[9] = Cmax in CD-1 mouse at 3 mg/kg, ip measured after 24 hrs by LC-MS/MS analysis; assay type: ADME, organism-based; conditions: in vivo
HT-29 [10] = assay: Antitumor activity against human HT-29 cells xenografted in BALB/c mouse assessed as reduction in tumor growth at 50 mg/kg, po administered once daily for 14 days relative to control; assay type: functional; conditions: HT-29, 336 h, time 14 day, read-out: TGI
HT-29 [11] = assay: Antitumor activity against human HT-29 cells xenografted in BALB/c mouse assessed as reduction in tumor growth at 50 mg/kg, ip administered once daily for 14 days relative to control; assay type: functional; conditions: HT-29, 336 h, time 14 day, read-out: TGI
MCF7 = assay: Antiproliferative activity against human MCF7 cells assessed as reduction in cell viability incubated for 48 hrs by MTT assay; assay type: functional, cell-based; conditions: MCF7, 48 h
COLO357 = assay: Inhibition of cell growth in human COLO357 cells incubated for 72 hrs by MTT assay; assay type: functional, cell-based; conditions: COLO357, 72 h
B16-F10 [12] = assay: Antitumor activity against mouse B16-F10 cells implanted in C57BL/6 mouse assessed tumor growth inhibition at 2.5 mg/kg, ip measured for 14 days relative to control; assay type: functional; conditions: B16-F10, 336 h, time 14 day, read-out: TGI
Panc02 = assay: Antiproliferative activity against mouse Panc02 cells measured after 72 hrs by MTT assay; assay type: functional, cell-based; conditions: Panc02, 72 h
MIA PaCa-2 = assay: Antiproliferative activity against human MIA PaCa-2 cells measured after 72 hrs by MTT assay; assay type: functional, cell-based; conditions: MIA PaCa-2, 72 h
MDA-MB-231 = assay: Antiproliferative activity against human MDA-MB-231 cells assessed as reduction in cell viability incubated for 48 hrs by MTT assay; assay type: functional, cell-based; conditions: MDA-MB-231, 48 h
PANC-1 = assay: Anticancer activity against human PANC-1 cells assessed as reduction in cell viability by measuring ATP level incubated for 24 hrs by CellTiter-Glo assay; assay type: functional, cell-based; conditions: PANC-1, 24 h
B16-F10 [13] = assay: Antiproliferative activity against mouse B16-F10 cells assessed as reduction in cell proliferation incubated for 4 days by crystal violet based assay; assay type: functional; conditions: B16-F10, 96 h

Vascular endothelial growth factor receptor 1, sequence (P17948 whole entry): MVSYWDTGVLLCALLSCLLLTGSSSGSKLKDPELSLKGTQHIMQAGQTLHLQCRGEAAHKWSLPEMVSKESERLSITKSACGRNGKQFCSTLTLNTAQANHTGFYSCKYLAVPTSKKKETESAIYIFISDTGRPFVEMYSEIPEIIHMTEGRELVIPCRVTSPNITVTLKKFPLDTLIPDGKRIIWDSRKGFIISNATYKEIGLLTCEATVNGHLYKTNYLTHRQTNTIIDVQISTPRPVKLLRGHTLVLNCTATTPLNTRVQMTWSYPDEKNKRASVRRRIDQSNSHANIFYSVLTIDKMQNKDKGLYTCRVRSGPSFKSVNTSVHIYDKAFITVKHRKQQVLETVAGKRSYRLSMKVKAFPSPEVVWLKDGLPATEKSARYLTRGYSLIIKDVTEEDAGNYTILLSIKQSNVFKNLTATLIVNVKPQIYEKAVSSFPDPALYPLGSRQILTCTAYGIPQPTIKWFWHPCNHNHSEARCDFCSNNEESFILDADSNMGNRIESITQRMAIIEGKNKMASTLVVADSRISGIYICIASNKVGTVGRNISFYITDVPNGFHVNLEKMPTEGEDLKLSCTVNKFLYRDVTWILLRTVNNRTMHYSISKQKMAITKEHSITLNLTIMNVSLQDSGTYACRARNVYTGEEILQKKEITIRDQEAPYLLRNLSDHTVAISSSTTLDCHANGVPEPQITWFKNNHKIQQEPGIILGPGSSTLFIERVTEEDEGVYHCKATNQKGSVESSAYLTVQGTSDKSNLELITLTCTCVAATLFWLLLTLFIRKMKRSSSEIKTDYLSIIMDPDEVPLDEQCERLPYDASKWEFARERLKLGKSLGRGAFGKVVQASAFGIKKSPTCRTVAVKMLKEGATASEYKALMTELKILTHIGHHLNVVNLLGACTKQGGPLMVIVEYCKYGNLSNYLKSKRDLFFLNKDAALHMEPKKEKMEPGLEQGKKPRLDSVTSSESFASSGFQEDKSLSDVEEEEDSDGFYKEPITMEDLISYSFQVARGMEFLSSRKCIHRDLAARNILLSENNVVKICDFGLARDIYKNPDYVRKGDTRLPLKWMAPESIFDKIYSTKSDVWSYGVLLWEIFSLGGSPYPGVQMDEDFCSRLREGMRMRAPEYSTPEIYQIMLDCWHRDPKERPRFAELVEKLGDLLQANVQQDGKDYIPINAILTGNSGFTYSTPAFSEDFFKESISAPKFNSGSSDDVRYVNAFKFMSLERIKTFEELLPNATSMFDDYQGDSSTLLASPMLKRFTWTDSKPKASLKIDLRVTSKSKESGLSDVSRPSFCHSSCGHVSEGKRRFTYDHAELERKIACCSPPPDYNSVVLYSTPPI

## Cc1ccc2oc(-c3c4c(N)n[nH]c(=O)c4nn3-c3ccc(NC(=O)/C=C/CN(C)C)cc3)c(C)c2c1
[1]
  AUC: 704 ng·h/mL
[2]
  IC50: 3 nM
NCI-H1581 [3]
  IC50: 43 nM
NCI-H1581 [4]
  inhibition in vivo at 50 mg/kg: 91.6%
SNU-16
  IC50: < 0.3 nM
NCI-H1581 [5]
  inhibition in vivo at 10 mg/kg: 74.4%
[6]
  half-life: 3.7 h
[7]
  IC50: 1.9 nM
[8]
  IC50: 43 nM
KG-1
  IC50: 43 nM
[9]
  Cmax: 282 ng/mL

## Cc1ccc(C2CC(c3ccc(F)cc3)=NN2C(=O)CN2C(=O)CCC2=O)cc1 (stereo unspecified)
HT-29 [10]
  inhibition in vivo at 50 mg/kg: 60%
HT-29 [11]
  inhibition in vivo at 50 mg/kg: 66%
MCF7
  IC50: 780 nM

## Clc1ccccc1C(c1ccccc1)(c1ccc(CCC[P+](c2ccccc2)(c2ccccc2)c2ccccc2)cc1)n1cccn1 (stereo unspecified)
COLO357
  IC50: 1310 nM
B16-F10 [12]
  inhibition in vivo at 2.5 mg/kg: 60%
Panc02
  IC50: 1310 nM
MIA PaCa-2
  IC50: 1310 nM
MDA-MB-231
  IC50: 1310 nM
PANC-1
  IC50: 1310 nM
B16-F10 [13]
  IC50: 1310 nM
